Assay results reported in PubChem BioAssay AID1918957 (Molecular Pharmacology Branch, DTP, NCI, 2023).

Test system: NCI-H1876 complex spheroid viability
Test: Anticancer human tumor NCI-H1876 cell line growth inhibition [LSD1];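 further: spheroids exposed to compounds for one week before readout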;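 on viability, T/C: 100% = DMSO vehicle-treated spheroids so lower means fewer viable cells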
Details: for IC50: curve of first compound; for viability, T/C: stronger effect = lower value
Outline: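 Drug combinations with the LSD1 inhibitor iadademstat tested on tumor cells co-cultured as spheroids with endothelial cells and mesenchymal stem cells. Concentrations descended in half-log increments from clinical Cmax or 10 microM.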

[1] = second compound 0.1 µM, first compound 0.000316 µM
[2] = second compound 0.1 µM, first compound 0.001 µM
[3] = second compound 0.1 µM, first compound 0.00316 µM
[4] = second compound 0.1 µM, first compound 0.01 µM
[5] = second compound 0.1 µM, first compound 0.0316 µM
[6] = second compound 0.1 µM, first compound 0.1 µM
[7] = second compound 0.316 µM, first compound 0.000316 µM
[8] = second compound 0.316 µM, first compound 0.001 µM
[9] = second compound 0.316 µM, first compound 0.00316 µM
[10] = second compound 0.316 µM, first compound 0.01 µM
[11] = second compound 0.316 µM, first compound 0.0316 µM
[12] = second compound 0.316 µM, first compound 0.1 µM
[13] = second compound 1 µM, first compound 0.000316 µM
[14] = second compound 1 µM, first compound 0.001 µM
[15] = second compound 1 µM, first compound 0.00316 µM
[16] = second compound 1 µM, first compound 0.01 µM
[17] = second compound 1 µM, first compound 0.0316 µM
[18] = second compound 1 µM, first compound 0.1 µM
[19] = second compound 3.16 µM, first compound 0.000316 µM
[20] = second compound 3.16 µM, first compound 0.001 µM
[21] = second compound 3.16 µM, first compound 0.00316 µM
[22] = second compound 3.16 µM, first compound 0.01 µM
[23] = second compound 3.16 µM, first compound 0.0316 µM
[24] = second compound 3.16 µM, first compound 0.1 µM
[25] = second compound 10 µM, first compound 0.000316 µM
[26] = second compound 10 µM, first compound 0.001 µM
[27] = second compound 10 µM, first compound 0.00316 µM
[28] = second compound 10 µM, first compound 0.01 µM
[29] = second compound 10 µM, first compound 0.0316 µM
[30] = second compound 10 µM, first compound 0.1 µM

| SMILES | IC50 (second compound 0.1 µM) [nM] | IC50 (second compound 0.316 µM) [nM] | IC50 (second compound 1 µM) [nM] | IC50 (second compound 3.16 µM) [nM] | IC50 (second compound 10 µM) [nM] | viability, T/C [3] [%] | viability, T/C [4] [%] | viability, T/C [5] [%] | viability, T/C [6] [%] | viability, T/C [9] [%] | viability, T/C [10] [%] | viability, T/C [11] [%] | viability, T/C [12] [%] | viability, T/C [15] [%] | viability, T/C [16] [%] | viability, T/C [17] [%] | viability, T/C [18] [%] | viability, T/C [21] [%] | viability, T/C [22] [%] | viability, T/C [23] [%] | further results |
| --- | --- | --- | --- | --- | --- | --- | --- | --- | --- | --- | --- | --- | --- | --- | --- | --- | --- | --- | --- | --- | --- |
| CC(C)CC(NC(=O)C(Cc1ccccc1)NC(=O)c1cnccn1)B(O)O (stereo not given) + NC1CCC(NC2CC2c2ccccc2)CC1 | 0.602 | 0.563 | 0.555 | 0.449 | 0.485 | 31.7 | 14.5 | 0.17 | 3.63 | 13.6 | 17.3 | 10.1 | 3.61 | 13.8 | 13.1 | 7.48 | 11.4 | 9.3 | 3.65 | 0.15 | viability, T/C [1]: 92.6%; viability, T/C [2]: 16.3%; viability, T/C [7]: 89.3%; viability, T/C [8]: 9.55%; viability, T/C [13]: 82%; viability, T/C [14]: 16.4%; viability, T/C [19]: 70%; viability, T/C [20]: 0.39%; viability, T/C [24]: 10.3%; viability, T/C [25]: 74%; viability, T/C [26]: 9.39%; viability, T/C [27]: 7.81%; viability, T/C [28]: 7.31%; viability, T/C [29]: 3.77%; viability, T/C [30]: 12.5% |
| CC(C)CC(NC(=O)CNC(=O)c1cc(Cl)ccc1Cl)B1OC(=O)CC(CC(=O)O)(C(=O)O)O1 (stereo not given) + NC1CCC(NC2CC2c2ccccc2)CC1 | 9.07 | 8.75 | 7.91 | 7.93 | 7.52 | 104 | 45.1 | 8.77 | 0.58 | 104 | 43 | 7.91 | 17.4 | 96.2 | 38.2 | 9.23 | 7.49 | 99 | 36.5 | 18.1 | viability, T/C [1]: 94.5%; viability, T/C [2]: 109%; viability, T/C [7]: 98.2%; viability, T/C [8]: 108%; viability, T/C [13]: 99.3%; viability, T/C [14]: 97.2%; viability, T/C [19]: 105%; viability, T/C [20]: 112%; viability, T/C [24]: 0.81%; viability, T/C [25]: 99%; viability, T/C [26]: 104%; viability, T/C [27]: 93.9%; viability, T/C [28]: 35.5%; viability, T/C [29]: 15.6%; viability, T/C [30]: 13.8% |
| COc1cc(Nc2ncc3c(n2)-c2ccc(Cl)cc2C(c2c(F)cccc2OC)=NC3)ccc1C(=O)O + NC1CCC(NC2CC2c2ccccc2)CC1 | 33.3 | 18.1 | 34.7 | 20 | 17.2 | 67.7 | 59.1 | 51.7 | 39.5 | 64.9 | 52.9 | 45.6 | 37.6 | 62.3 | 57.5 | 51.8 | 40 | 62.9 | 52.1 | 47.2 | viability, T/C (second compound 0.1 µM, first compound 0.316 µM): 31.7%; viability, T/C (second compound 0.1 µM, first compound 1 µM): 25.7%; viability, T/C (second compound 0.316 µM, first compound 0.316 µM): 35%; viability, T/C (second compound 0.316 µM, first compound 1 µM): 23.7%; viability, T/C (second compound 1 µM, first compound 0.316 µM): 32.3%; viability, T/C (second compound 1 µM, first compound 1 µM): 19.9%; viability, T/C [24]: 41.2%; viability, T/C (second compound 3.16 µM, first compound 0.316 µM): 28.6%; viability, T/C (second compound 3.16 µM, first compound 1 µM): 22.1%; viability, T/C [27]: 60.9%; viability, T/C [28]: 52.7%; viability, T/C [29]: 50.3%; viability, T/C [30]: 33.2%; viability, T/C (second compound 10 µM, first compound 0.316 µM): 31.5%; viability, T/C (second compound 10 µM, first compound 1 µM): 22.5% |
